Results from paper PMC11741006, “Raman active diyne-girder conformationally constrained p53 stapled peptides bind to MDM2 for visualisation without fluorophores” (RSC Chemical Biology, 2025).
Residues, ends and D or L forms follow the SMILES beside them. *: point of attachment. FITC = O=C1OC2(c3ccc(O)cc3Oc3cc(O)ccc32)c2ccc(NC(=S)*)cc21; Ahx = NCCCCCC(=O)O

Key:
MDM2 (1–138) = molecular target: T1, MDM2 (1–138) (Homo sapiens, UniProt Q00987); assay: Fluorescence polarisation direct binding assay, MDM2; conditions: direct FP binding; 10 nM FITC peptide in Tris buffer pH 7.6; protein serially diluted 10 μM to 9 pM; 3 h, room temperature; quadratic ligand depletion fit; n = 3
T1 construct: His6-GST (TEV-cleavable) (N, cleaved yes); made in house; host or cells: E. coli Rosetta 2(DE3)pLacI
T1 sequence (Q00987 1-138): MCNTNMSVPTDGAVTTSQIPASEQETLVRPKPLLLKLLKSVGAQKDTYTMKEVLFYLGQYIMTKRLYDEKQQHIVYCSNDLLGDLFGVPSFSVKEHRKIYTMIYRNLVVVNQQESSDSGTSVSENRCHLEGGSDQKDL
Procedure: The binding properties of the peptides were assessed using a biophysical FP assay. Specifically, a direct binding assay was conducted to calculate the Kd values of the fluorescent peptide ligands binding to the target proteins. Fluorescently labelled peptides were tested for binding to MDM2 (1-138) and MDMX (1-134). […] All FP measurements were performed on a microplate reader (CLARIOstar) in black 384-well microplates with 20 μL of sample solution per well.
was added and serially diluted from 10 μM to 9 pM. Peptide (10 nM in Tris buffer pH 7.6) was then added to all wells and mixed. The sample were left to incubate at room temperature for 3 hours. Plates were placed in a PerkinElmer Victor X5 plate reader with excitation measured at 531 nm and emission measured at 595 nm. The raw data was normalized using baseline correction, where the baseline was defined as the fluorescence polarisation measured in the absence of peptide. Normalised data were then plotted in Prism 7.0 and fitted by using the quadratic ligand depletion model (Equation S3).
Y is the fluorescent polarisation signal measured at each datapoint. […]

[1] = Circular dichroism spectroscopy, percentage helicity; assay type: physicochemical; conditions: CD in PBS pH 7.4, room temperature; from MRE at 222 nm, equations of Luo and Baldwin; peptides analysed at 25 μM and 50 μM
Procedure: Following the successful synthesis of the diyne peptide 4, it was important to identify the effect of the modified staple on the α-helical nature of the peptide. The effectiveness of the diyne staple as an α-helical constraint was assessed by CD. Experiments were set out to directly compare the diyne stapled peptide 4 to the alkene stapled peptides (cis-2 and trans-3), with the linear peptide 1 employed as a control. CD was performed at two concentrations to investigate whether peptide concentration influenced helicity, as coiled-coil structures are known to increase helicity.[25] Peptide concentrations were quantified using a NanoDrop™ One Microvolume UV-Vis spectrophotometer using the UV absorption of the peptides at 280 nm.[26] Extinction coefficients of the peptides were calculated from Trp and Tyr residues and the Beer–Lambert law employed to calculate the concentrations.
Each of the peptides (1–4) were analysed at 25 μM and 50 μM in phosphate buffered saline (PBS, pH 7.4) (Fig. 3). CD spectra were measured from 190–260 nm and the characteristic α-helical negative maxima examined for their intensity at 208 nm and 222 nm.[27] […] This is to be expected due to the random coil nature of 1. […] Helicity calculations were performed following conversion of the measured degrees of ellipticity (θ) data to mean residue ellipticity (MRE) (eqn (S1), ESI ^†). […]
Cell Permeability Fluorescence Assay […]

MDMX (1–134) = molecular target: T2, MDMX (1–134) (Homo sapiens, UniProt O15151); assay: Fluorescence polarisation direct binding assay, MDMX; conditions: direct FP binding; 10 nM FITC peptide in Tris buffer pH 7.6; protein serially diluted 10 μM to 9 pM; 3 h, room temperature; quadratic ligand depletion fit; n = 3
T2 construct: tested against MDMX (1–134); His6-GST (TEV-cleavable) (N, cleaved yes); made in house; host or cells: E. coli Rosetta 2(DE3)pLysS
T2 sequence (O15151 1-134): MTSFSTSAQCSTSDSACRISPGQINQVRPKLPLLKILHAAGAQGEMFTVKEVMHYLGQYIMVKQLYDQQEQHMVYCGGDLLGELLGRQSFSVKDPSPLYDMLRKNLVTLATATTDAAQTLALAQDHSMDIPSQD
Procedure: The binding properties of the peptide were assessed using a biophysical FP assay. Specifically, a direct binding assay was conducted to calculate the Kd values of the fluorescent peptide ligands binding to the target proteins (eqn (S3), ESI ^†).[29] […] The peptides were first tested for binding with MDM2 (1–138). […] Peptide solutions were made up to a concentration of 10 nM and varying concentrations of protein (10 μM to 9 pM) were incubated with the peptide with FP measurements taken after 3 h (Fig. 4). […] The final analogue examined for its binding of MDM2 was 5FITC, the diyne negative control. […]
resuspension buffer. […]
The His6-GST -tagged proteins were then cleaved with TEV while dialyzing into 330 mM NaCl, PBS, 5 mM BME for 20 hours at 4 °C. […] Protein concentration was measured at an absorbance of 595 nm with the Bio-rad Protein Assay Kit II using bovine serum albumin as a standard. […]
Fluorescence Polarisation Binding Assay
The binding properties of the peptides were assessed using a biophysical FP assay. […] All FP measurements were performed on a microplate reader (CLARIOstar) in black 384-well microplates with 20 μL of sample solution per well. […]
was added and serially diluted from 10 μM to 9 pM. […] Plates were placed in a PerkinElmer Victor X5 plate reader with excitation measured at 531 nm and emission measured at 595 nm. […]

Compound	percentage helicity [1] [%]	other results
CC(C)C[C@H](NC(=O)CCCCCNC(=S)Nc1ccc2c(c1)C(=O)OC21c2ccc(O)cc2Oc2cc(O)ccc21)C(=O)N[C@H](C(=O)N[C@@H](Cc1ccccc1)C(=O)N[C@@]1(C)CCCCCC#CC#CCCCCC[C@@](C)(C(=O)N[C@@H](CO)C(=O)N[C@@H](C)C(=O)N[C@@H](C)C(N)=O)NC(=O)[C@H](CC2CCC2)NC(=O)[C@H](CCC(N)=O)NC(=O)[C@H](C)NC(=O)[C@H](Cc2c[nH]c3ccccc23)NC(=O)[C@H](Cc2ccc(O)cc2)NC(=O)[C@H](CCC(=O)O)NC1=O)[C@@H](C)O [4FITC]		Kd (MDM2 (1–138)): 1.39 ± 0.08 nM
Ac-LTFS7EYWAQ(Cba)S7SAA-NH2 (sidechain bridge or staple) [compound 4, i, i + 7 diyne-girder stapled peptide analogue of ATSP-7041, acetylated]	59	
Ac-LTFR8EYWAQ(Cba)S5SAA-NH2 (sidechain bridge or staple) [compound 2, i, i + 7 alkene stapled peptide ATSP-7041 (2/3), cis-isomer, acetylated]	48	
CC(C)C[C@H](NC(=O)CCCCCNC(=S)Nc1ccc2c(c1)C(=O)OC21c2ccc(O)cc2Oc2cc(O)ccc21)C(=O)N[C@H](C(=O)N[C@@H](Cc1ccccc1)C(=O)N[C@@H](CCC(=O)O)C(=O)N[C@@H](Cc1c[nH]cn1)C(=O)N[C@@H](Cc1ccc(O)cc1)C(=O)N[C@@H](Cc1c[nH]c2ccccc12)C(=O)N[C@@H](C)C(=O)N[C@@H](CCC(N)=O)C(=O)N[C@@H](CC(C)C)C(=O)N[C@H](C(=O)N[C@@H](CO)C(N)=O)[C@@H](C)O)[C@@H](C)O [1FITC] ({FITC-Ahx}-LTFEHYWAQLTS-NH2)		Kd (MDMX (1–134)): 20.1 ± 0.23 nM
